{"source": "paper PMC10634346", "about": "(Cancer Research Communications, 2023)", "key": {"[1]": {"tested_on": "PHF23, TP53RK, ZFP36 and JUNB mRNA in blood", "test": "RNA-seq DEGs in blood of patients (PHF23, TP53RK, ZFP36, JUNB)", "format": "in vivo, human", "experimental": "(§1) Total RNA was extracted from blood of patients and cell lines using RNeasy Plus Mini Kit (QIAGEN, #74136) and cDNA prepared with the Maxima First Strand cDNA Synthesis Kit for RT-PCR (Thermo Fisher Scientific, K1642) according to manufacturer's instructions. The integrity of purified total RNA was evaluated using an Agilent 2100 Bioanalyzer system and RNA 6000 Nano Kit (Agilent, #5067-1511). Differential gene expression analysis was performed (Fios Genomics) from RNA-seq data (Discovery Life Sciences). MYC and MCL1 mRNA levels were measured by qPCR in vitro and in vivo, using a Taqman qPCR system (Thermo Fisher Scientific), TaqMan Fast Universal PCR Master Mix (2X) no AmpErase (#4352042) and TaqMan probes for MYC (Hs00153408_m1) and MCL1 (Hs03043899_m1). RNA-seq data were analyzed using DESeq2 ([35]).\nFifteen patients with refractory or relapsed DH-DLBCL or other MYC+ NHL were treated with enitociclib (30 mg, 21-day cycle, once weekly x3) as a 30-minute intravenous infusion on study days 1, 8, and 15 (NCT02635672). Longitudinal gene expression levels were analyzed by RNA-seq, and enitociclib plasma concentrations were measured using LC/MS-MS. The clinical study protocol was approved by the Institutional Review Board of participating institutions and complied with the Declaration of Helsinki, current Good Clinical Practice guidelines, and local laws and regulations. Written informed consent was provided by all participants prior to the initiation of any study-specific procedure.\nRNA-seq data generated from the analysis of two cell lines treated with the three CDK9 inhibitors was analyzed to investigate the differences in gene expression levels between various posttreatment timepoints and the pretreatment samples. Quality control assessment and exploratory data analysis by principal component analysis (PCA) were done on raw counts and on normalized count data. Normalization of RNA-seq count data was done using trimmed mean of M-values normalization and transformed with voom, resulting in log2 counts per million with associated precision weights. […] Significance values (Padj) were adjusted for multiple testing, by controlling the FDR using the Benjamini–Hochberg procedure. […] RNA-seq data generated from blood samples taken from patients before and after their first dose (C1D1) or after multiple doses, before and after their third dose (C1D15) were analyzed and normalized using the same pipeline as cell lines for comparisons."}, "[2]": {"tested_on": "cleaved PARP in SU-DHL-10 tumors", "test": "Pharmacodynamics in SU-DHL-10 xenograft tumors, cleaved PARP", "format": "in vivo, C.B-17 SCID mice", "details": "single dose", "experimental": "The levels of p-Ser2, p-Ser5 and total RNA polymerase II, Myc, Mcl-1, cleaved PARP (cPARP), and cleaved Caspase 3 were assessed by Western blotting and quantified near-infrared detection and background corrected quantification of fluorescence intensity on an Odyssey Imaging System with IRDye secondary antibodies (LI-COR Biosciences). For quantification, the protein levels were normalized to GAPDH or HSP90, expressed as a ratio to DMSO or vehicle control at matched timepoints. The normalized relative protein levels of p-Ser2 were used for a treatment effect comparison by performing an ANOVA using PROC MIXED in SAS. The ANOVA model included treatment, timepoints and their interactions as fixed effects. The least square means (LSM), differences between the LSMs and associated P values were generated. The following primary antibodies were used: Rpb1 NTD (D8L4Y) rabbit antibody [Cell Signaling Technology (CST), #14958], anti-RNA polymerase II subunit B1 (phospho CTD Ser-2, clone 3E10) rat antibody (Merck, 04-1571-I), recombinant anti-c-MYC rabbit antibody (Y69; Abcam, #ab32072), MCL1 (D5V5L) rabbit antibody (CST, #39224), cleaved-PARP (Asp214) (E2T4K) mouse antibody (CST, #32563), HSP90 (C45G5) rabbit antibody (CST, #4877), and GAPDH mouse antibody (Zytomed Systems, #ZYT-RGM2-6C5). […]"}, "[3]": {"tested_on": "MCL1 mRNA in SU-DHL-10 tumors", "test": "Pharmacodynamics in SU-DHL-10 xenograft tumors, MCL1 mRNA qPCR", "format": "in vivo, C.B-17 SCID mice", "details": "single dose; depletion sustained for 8 hours postdose at the two higher dose levels", "experimental": "as §1\n(§2) A total of 10 × 10^6 SU-DHL-10 cells were inoculated subcutaneously into 6–8 weeks old female C.B-17 SCID mice (Iffa Credo, Brussels). The mice were randomized to treatment groups at a tumor volume of 63–104 mm^3 and treated (intravenously, once weekly) with 10 mg/kg enitociclib (60% PEG400, 10% ethanol, water), 15 mg/kg enitociclib (30% PEG400, 10% ethanol, water), or corresponding vehicle treatments. Mice were around 10–12 weeks of age at the start of study. All animal experiments were performed under the national animal welfare laws of Germany and approved by the local authorities."}, "[4]": {"tested_on": "SU-DHL-10 xenografts", "test": "SU-DHL-10 xenograft antitumor efficacy", "format": "in vivo, C.B-17 SCID mice", "experimental": "as §2\nStatistical analyses were performed using GraphPad Prism v9 (GraphPad Software). For tumor volumes in SU-DHL-10 xenograft model, statistics were performed using unpaired t test in comparison with the corresponding vehicle treatment. The obtained P values were adjusted for all analyses. Results were considered statistically significant when P < 0.05."}, "[5]": {"tested_on": "DH-DLBCL and other MYC+ NHL", "details": "30 mg i.v. once weekly, phase I; cited from earlier work"}, "[6]": {"details": "DH-DLBCL and other MYC+ NHL, after C1D1 and C1D15"}}, "data": [{"compound": "COc1cc(F)ccc1-c1cc(Nc2cc(CS(C)(=N)=O)ccn2)ncc1F", "note": "(stereo not shown) [enitociclib]", "values": [{"measurement": "PHF23 mRNA fold change from predose", "setting": "[1]; [6]", "result": "approximately –1 fold change"}, {"measurement": "TP53RK mRNA fold change from predose", "setting": "[1]; [6]", "result": "–2 fold change"}, {"measurement": "Downregulation of ZFP36 and JUNB mRNA levels", "setting": "[1]; other MYC+ NHL (n = 3), after C1D1", "result": "approximately −2 fold change"}, {"measurement": "Downregulation of ZFP36 and JUNB mRNA levels", "setting": "[1]; other MYC+ NHL (n = 3), after C1D15 (decreased toward)", "result": "~−1"}, {"measurement": "Downregulation of ZFP36 and JUNB mRNA levels", "setting": "[1]; patients with DH-DLBCL, after C1D1 and C1D15", "result": "> −2"}, {"measurement": "cleaved PARP in tumors (in words)", "setting": "[2]", "result": "increase in cleaved PARP"}, {"measurement": "MCL1 mRNA levels in tumors (in words)", "setting": "[3]", "result": "reduced by 4 hours postdose"}, {"measurement": "antitumor efficacy (in words)", "setting": "[4]; 10 mg/kg i.v. once weekly", "result": "tumor growth control"}, {"measurement": "treatment/control (T/C) value", "setting": "[4]; 10 mg/kg i.v. once weekly, day 16 after treatment start, P = 0.011", "result": 0.19}, {"measurement": "antitumor efficacy (in words)", "setting": "[4]; 15 mg/kg i.v. once weekly, 3-week treatment period", "result": "complete regression"}, {"measurement": "treatment/control (T/C) value", "setting": "[4]; 15 mg/kg i.v. once weekly, day 20 after treatment start, P < 0.001", "result": 0.005}, {"measurement": "tumor growth inhibition reaching, of control", "setting": "[4]; SU-DHL-10 xenografts", "result": "0.5 % of control"}, {"measurement": "complete metabolic remission (CR), patients with DH-DLBCL", "setting": "[5]", "result": "2 of 7"}]}]}
